Test results from EP3682883A1, “QUINOLINE DERIVATIVE FOR TREATMENT OF NEUROENDOCRINE TUMORS” (Chia Tai Tianqing Pharmaceutical Group Co., Ltd., priority 2017, dated 2019).

What was measured:
Type in all cases: in vivo, human
[1] = system: ampullary neuroendocrine tumor; assay: Clinical case Example 10: treatment of a patient, CT scan of metastatic lesions; conditions: prior therapy in patient history; 10mg qd orally; CT and MRI on May 25, 2018
Text: A patient, underwent a laparotomy on August 18, 2016, the gallbladder, distal part of the stomach, duodenum, and part of the pancreas were removed. […] The patient was diagnosed with ampullary neuroendocrine tumor (high proliferative activity, mitotic count, […]) on November 4, 2016, which was located in the ampulla, the common bile duct, duodenal papilla and major pancreatic duct were invaded, intravascular tumor thrombus was visible and pancreatic tissue was also invaded, immunohistochemistry: AFP (-).
10mg of everolimus (qd) was administered orally from February 7 to May 25, 2018, and the efficacy was evaluated as SD on March 29, 2018.
A daily dose of 12 mg of dihydrochloride of Compound I capsule was given once a day from July 4, 2018 (two-week administration period and one-week withdrawal period, i.e. three weeks as one treatment cycle).

[2] = system: retroperitoneal neuroendocrine tumor; assay: Clinical case Example 5: treatment of a patient, CT scan of target lesions; conditions: prior therapy in patient history
[3] = system: neuroendocrine tumor which tend to be atypical carcinoid; assay: Clinical case Example 4: treatment of a patient, CT scan of target lesions; conditions: prior therapy in patient history; 4 mg once a month; after two cycles
Experimental: A patient was diagnosed with neuroendocrine tumor which tend to be atypical carcinoid after a chest tumor puncture by pathology exam, then the patient was treated with chemotherapy of paclitaxel, etoposide and cisplatin for three cycles, a CT scan was performed after the treatment, efficacy of the therapy was evaluated as SD, followed by Right anterior mediastinal mass resection and partial right upper lobe resection. […] Local chest radiotherapy was performed in the first to second month after operation, and evaluated as SD after the treatment, during which III° radiation esophagitis occurred. […] Temozolomide and capecitabine was then given for 2 cycles from the 23rd month to 25th month after operation, and efficacy was evaluated as SD (large), during this period, pain in both lower extremities occurred, and even got worse. Then 4 mg of zoledronic acid was given once a month, the efficacy was evaluated as PD by CT scan after two cycles of the treatment, followingly, Shanlong (octreotide acetate microspheres for injection) was given for 1 cycle, the efficacy was evaluated as PD by CT scan which was performed after 27 months postoperatively, and the sum of the target lesion diameters was 179 mm. […]

CO[C@H]1C[C@@H]2CC[C@@H](C)[C@@](O)(O2)C(=O)C(=O)N2CCCC[C@H]2C(=O)O[C@H]([C@H](C)C[C@@H]2CC[C@@H](OCCO)[C@H](OC)C2)CC(=O)[C@H](C)/C=C(\C)[C@@H](O)[C@@H](OC)C(=O)[C@H](C)C[C@H](C)/C=C/C=C/C=C/1C [everolimus]
CT and MRI result (prior therapy) [1]: the disease progressed

CCN(CC)CCNC(=O)c1c(C)[nH]c(/C=C2\C(=O)Nc3ccc(F)cc32)c1C [sunitinib malate]
efficacy evaluated (prior therapy) ([2]; after Saisheng and thymosin): PD (the sum of the diameters of target lesions of tumor increased by more than 20% from the baseline level)

O=P(O)(O)C(O)(Cn1ccnc1)P(=O)(O)O [zoledronic acid]
efficacy evaluated by CT scan (prior therapy) [3]: PD (the sum of the diameters of target lesions of tumor increased by more than 20% from the baseline level)

thymosin
reexamination (prior therapy) ([2]; Saisheng and thymosin given together): no response
